# Data as given in patent US20210038668A1, “TRADITIONAL CHINESE MEDICINE COMPOSITION FOR PREVENTING AND/OR TREATING ISCHEMIC REPERFUSION INJURY” (TASLY PHARMACEUTICAL GROUP CO., LTD., priority 2018, published 2021).
# Columns and labels:
# Format in all cases: in vivo, C57BL/6 mice
# VE-cadherin = assay: Western blotting of VE-cadherin, cortex of ischemic penumbra; settings: brain tissue 24 hours after administration, sham = 1.00; tPA 10 mg/kg alone; T541 20 mg/kg + tPA 10 mg/kg
# Experimental: (§1) After reperfused for 24 hours, mice were perfused by normal saline; Western blotting analysis was conducted to the penumbra field of infarcted right cerebral cortex. After perfused, mice brain tissue was taken out; cerebellum and prefrontal lobe were cut off; the brain tissue of right brain close to 1 cm of the central joint of left and right hemispheres along the sagittal view; infarcted penumbra field of the rest tissues was cut off along an 45° angle; the cerebral cortex of the penumbra field was peeled off and preserved at low temperature. Right cerebral cortex was taken and added 1×RIPA lysate and a Cocktail protease inhibitor (1:100, Cell Signaling Technology, US) for full pyrolysis and ultrasonic treatment, and then 17000 g were centrifuged for 30 minutes. Supernatant was taken and added 5×loading buffer by volume, boiled for 20 minutes in boiling water, and then preserved at −80° C. Excessive supernatant was taken out and quantified by a BCA protein quantification liquor (ThermoScientific, US) to measure absorbance value at 560 nm of ELIASA and to calculate the protein concentration according to a standard curve. […] The density of electrophoretic strips was analyzed by an image analysis software Quantityone. […]
# [1] = test system: blood flow of cerebral cortex; assay: Cerebral blood flow by Laser Doppler Flowmetry
# Experimental: Mice were anesthetized via intraperitoneal injection by pentobarbital sodium (2%, 45 mg/kg), and neck kin was sterilized. A median incision was cut on the neck, exposed and isolated to obtain arteria carotis communis; a waterproof cushion was used to isolate arteria carotis communis with the length of about 2.5-3 mm from surrounding tissues. The isolated arteria carotis communis was wrapped by a filter paper soaked by 10% FeCl3 for about 1 mm (width), and the filter paper was removed 3 minutes later, the outside of blood vessel was washed by 0.9% normal saline. The waterproof cushion was removed. The neck incision was sutured. The start of Fe3+ stimulation was defined as the beginning of ischemia, and those mice meeting the following conditions were selected into the group: the blood vessel was blocked at the maximum diameter of the neck thrombus 10 minutes after ischemia; the blood flow of the carotid artery distal end was less than 20% of the base value 15 minutes after ischemia; and the thrombus was stable 4.5 hours after ischemia (before reperfusion); the carotid artery vessel at 60% and more of the diameter was blocked by the maximum diameter of the thrombus.
# Mice were treated by medicaments or normal saline according to random grouping results 4.5 hours after ischemia. Mice femoral vein was intubated, and left femoral vein was injected tPA (tissue plasminogen activator) or normal saline; right femoral vein was injected the traditional Chinese medicinal composition of the present invention or normal saline; 10% of the total dose was injected via an injection pump, and the rest 90% were continuously injected intravenously for 1 hour with the rate of 0.1 ml/h. Three proportion groups were selected to the traditional Chinese medicinal composition of the present invention respectively below:
# A computer-linked Laser Doppler Flowmetry was used to measure the blood flow of cerebral cortex in the dominant region of bilateral middle cerebral arteries. Anesthetized mice were placed on a board in supine position; skin on the parietal bone of both sides was cut to fully expose the parietal bone; a computer-linked low-energy He—Ne laser probe was placed away 16-18 cm on the parietal bone to detect the blood flow of pia mater in the blood supply region of bilateral middle cerebral arteries of mice before ischemia (namely, a base value), 10 minutes after ischemia, 4.5 hours after ischemia (namely, before reperfusion), 1 hour after reperfusion, 2 hours after reperfusion and 24 hours after reperfusion. A cerebral blood flow analysis software LDPIwin 3.1 (PeriScan PIM3 System, PERIMED, Stockholm, Sweden) was used to calculate the blood flow of cerebral cortex in the same region dominated by bilateral MCA.
# [2] = test system: brain tissue (blood brain barrier leakage); assay: Evens Blue leakage in brain tissue; settings: 24 h after administration; method: microgram Evens Blue per gram brain tissue; tPA 10 mg/kg alone; T541 20 mg/kg + tPA 10 mg/kg
# Experimental: Evens Blue leakage: after reperfused for 21 hours, mice were slowly injected an Evens Blue dye (2%, 4 ml/kg) dissolving in normal saline via femoral vein. 3 hours later, mice were perfused 15-20 ml of normal saline till auricula dextra flows colourless liquid, then the brain was immediately separated and immobilized in a 3% paraformaldehyde for 3 hours, then taken out, the brain was cut into 5 slices and shoot; left and right brain was separated and respectively weighed. Left and right brain was respectively added to an EP tube containing 1 ml of 50% trichloroacetic acid, homogenated and centrifuged to obtain the supernatant. An Evens Blue standard was prepared and the content of Evens Blue was detected by a multimode reader (exciting light: 620 nm, emitting light: 680 nm). The content of Evens Blue was denoted by the microgram of Evens Blue in per gram of brain tissue.
# ZO-1 = assay: Western blotting of ZO-1, cortex of ischemic penumbra; settings: brain tissue 24 hours after administration, sham = 1.00; tPA 10 mg/kg alone; T541 20 mg/kg + tPA 10 mg/kg
# Experimental: as §1
# cerebral hemorrhage = assay: Hemoglobin in right hemisphere tissue (cerebral hemorrhage); settings: 24 h after administration, tPA 10 mg/kg alone, T541 20 mg/kg + tPA 10 mg/kg
# Experimental: After reperfused for 24 hours, mice were perfused via heart by a PBS buffer precooled at 4° C. and separated brain via craniotomy; the brain was cut from front to back into 5 slices in a brain stereotaxic apparatus; bleeding condition was rapidly shoot by a stereoscopic microscope; then slices were stored at −80° C.; and hemoglobin was measured by a hemoglobin spectrophotometry cassette.
# ATP5D = ATP5D content in brain tissue; settings: brain tissue 24 hours after administration, sham = 1.00; tPA 10 mg/kg alone; T541 20 mg/kg + tPA 10 mg/kg
# Experimental: as §1
# Collagen IV = assay: Western blotting of Collagen IV, basement membrane; settings: brain tissue 24 hours after administration, sham = 1.00; tPA 10 mg/kg alone; T541 20 mg/kg + tPA 10 mg/kg
# Experimental: as §1
# [3] = before administration, groups: tPA 10 mg/kg alone, T541 20 mg/kg, T141 12 mg/kg, T582 15 mg/kg each + tPA 10 mg/kg
# [4] = iv, tPA 10 mg/kg alone, T541 20 mg/kg, T141 12 mg/kg, T582 15 mg/kg each + tPA 10 mg/kg
substance,measurement,setting,value
tPA: tissue-type plasminogen activator (tPA) for thrombolysis,VE-cadherin/β-actin,VE-cadherin,0.53 ± 0.07
same,"Cerebral blood flow, 10 minutes after FeCl3 simulation",[1]; [3],55.20 ± 5.69
same,"Cerebral blood flow, Before FeCl3 simulation",[1]; [3],100.25 ± 1.19
same,recovery of brain blood flow (in words),"[1]; high-dose T541 or tPA simply given, T141, T582 with tPA",no obvious recovery of the brain blood flow
same,"Cerebral blood flow, 5.5 hours after FeCl3 simulation (1 hour after administration)",[1]; [4],47.56 ± 6.13
same,"Cerebral blood flow, 6.5 hours after FeCl3 simulation (2 hours after administration)",[1]; [4],41.46 ± 4.49
same,"Cerebral blood flow, 28.5 hours after FeCl3 simulation (24 hours after administration)",[1]; [4],42.40 ± 4.61
same,"Cerebral blood flow, 4.5 hours after FeCl3 simulation","[1]; start of administration, groups: tPA 10 mg/kg alone, T541 20 mg/kg, T141 12 mg/kg, T582 15 mg/kg each + tPA 10 mg/kg",49.58 ± 7.44
same,Evens Blue leakage,[2],17.55 ± 1.23
same,ZO-1/β-actin,ZO-1,0.42 ± 0.05
same,Hemoglobin,cerebral hemorrhage,13.55 ± 3.72
same,ATP5D,ATP5D,0.71 ± 0.05
same,Collagen IV content,Collagen IV,0.68 ± 0.04
